Source: patent publication US8952024B2, “Herbicidal pyrimidone derivatives” (E I du Pont de Nemours and Company, priority 2009, dated 2015)
Read-outs that look alike come from different tables or passages of the source.

Assays:
Test in all cases: Test A pre-/postemergence plant response
Assay type in all cases: in vivo
[1] = system: barnyardgrass (Echinochloa crus-galli); settings: Echinochloa crus-galli, 240 h; for pest or weed control at 125 g/ha: 125 g ai/ha; for pest or weed control at 500 g/ha: 500 g ai/ha
Method in brief: (§1)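 Greenhouse trial, ~10 days. Soil (loam/sand) sprayed preemergence after seeding; emerged plants (1–2 leaf, 2–10 cm) sprayed postemergence in parallel. Response = visual injury vs untreated control, 0–100.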

[2] = system: corn (Zea mays); settings: Zea mays, 240 h; for Corn plant response rating (crop injury, 0 = no effect, 100 = complete kill) at 125 g/ha: 125 g ai/ha
Method in brief: as §1

[3] = system: giant foxtail (Setaria faberii); settings: Setaria faberi, 240 h; for pest or weed control at 125 g/ha: 125 g ai/ha; for pest or weed control at 500 g/ha: 500 g ai/ha
Method in brief: as §1

[4] = system: large crabgrass (Digitaria sanguinalis); settings: Digitaria sanguinalis, 240 h; for pest or weed control at 125 g/ha: 125 g ai/ha; for pest or weed control at 500 g/ha: 500 g ai/ha
Method in brief: as §1

[5] = system: morningglory (Ipomoea spp.); settings: Ipomoea, 240 h; for pest or weed control at 125 g/ha: 125 g ai/ha, read-out: Plant response rating, Morningglory
Method in brief: as §1

[6] = system: pigweed (Amaranthus retroflexus); settings: Amaranthus retroflexus, 240 h; for pest or weed control at 125 g/ha: 125 g ai/ha; for pest or weed control at 500 g/ha: 500 g ai/ha
Method in brief: as §1

[7] = system: velvetleaf (Abutilon theophrasti); settings: Abutilon theophrasti, 240 h; for pest or weed control at 125 g/ha: 125 g ai/ha; for pest or weed control at 500 g/ha: 500 g ai/ha
Method in brief: as §1

[8] = system: wheat (Triticum aestivum); settings: Triticum aestivum, 240 h; for plant injury at 125 g/ha: 125 g ai/ha; for plant injury at 500 g/ha: 500 g ai/ha
Method in brief: as §1

[9] = pre-emergence, Preemergence, 0 to 100 scale, 0 = no effect, 100 = complete control, read-out: Plant response rating, Barnyardgrass
[10] = post-emergence, Postemergence, 0 to 100 scale where 0 is no effect and 100 is complete control
[11] = pre-emergence, Preemergence, 0 to 100 scale, 0 = no effect, 100 = complete control
[12] = pre-emergence, Preemergence, 0 to 100 scale, 0 = no effect, 100 = complete control, read-out: Plant response rating, Foxtail, Giant
[13] = pre-emergence, Preemergence, 0 to 100 scale, 0 = no effect, 100 = complete control, read-out: Plant response rating, Crabgrass, Large
[14] = pre-emergence, Preemergence, 0 to 100 scale, 0 = no effect, 100 = complete control, read-out: Plant response rating, Pigweed
[15] = pre-emergence, Preemergence, 0 to 100 scale, 0 = no effect, 100 = complete control, read-out: Plant response rating, Velvetleaf
[16] = pre-emergence, Preemergence, 0 to 100 scale, 0 = no effect, 100 = complete control, read-out: Plant response rating, Wheat

## O=C(c1cnoc1C1CC1)c1cnc(-c2ccccc2)n(-c2ccccc2)c1=O [Compound 223, 5-[(5-cyclopropyl-4-isoxazolyl)-carbonyl]-2,3-diphenyl-4(3H)-pyrimidinone]
[1]; post-emergence, Postemergence, 0 to 100 scale where 0 is no effect and 100 is complete control, read-out: Plant response rating, Barnyardgrass
  pest or weed control at 125 g/ha: 0%
[1]; post-emergence, Postemergence, visual injury, 0 to 100 scale (0 no effect, 100 complete control), approx. ten days, read-out: Barnyardgrass plant response rating
  pest or weed control at 500 g/ha: 50%
[1]; [9]
  pest or weed control at 125 g/ha: 0%
  pest or weed control at 500 g/ha: 70%
[2]; [10]
  Corn plant response rating (crop injury, 0 = no effect, 100 = complete kill) at 125 g/ha: 0%
[2]; post-emergence, Postemergence, 500 g ai/ha, visual injury, 0 to 100 scale (0 no effect, 100 complete control), approx. ten days, read-out: Corn plant response rating
  plant injury at 500 g/ha: 20%
[2]; [11]
  Corn plant response rating (crop injury, 0 = no effect, 100 = complete kill) at 125 g/ha: 0%
[2]; pre-emergence, Preemergence, 500 g ai/ha, 0 to 100 scale, 0 = no effect, 100 = complete control
  Corn plant response rating (crop injury, 0 = no effect, 100 = complete kill) at 500 g/ha: 0%
[3]; post-emergence, Postemergence, 0 to 100 scale where 0 is no effect and 100 is complete control, read-out: Plant response rating, Foxtail, Giant
  pest or weed control at 125 g/ha: 0%
[3]; post-emergence, Postemergence, visual injury, 0 to 100 scale (0 no effect, 100 complete control), approx. ten days, read-out: Foxtail, Giant plant response rating
  pest or weed control at 500 g/ha: 70%
[3]; [12]
  pest or weed control at 125 g/ha: 30%
  pest or weed control at 500 g/ha: 90%
[4]; post-emergence, Postemergence, 0 to 100 scale where 0 is no effect and 100 is complete control, read-out: Plant response rating, Crabgrass, Large
  pest or weed control at 125 g/ha: 0%
[4]; post-emergence, Postemergence, visual injury, 0 to 100 scale (0 no effect, 100 complete control), approx. ten days, read-out: Crabgrass, Large plant response rating
  pest or weed control at 500 g/ha: 60%
[4]; [13]
  pest or weed control at 125 g/ha: 30%
  pest or weed control at 500 g/ha: 80%
[5]; [10]
  pest or weed control at 125 g/ha: 60%
[5]; post-emergence, Postemergence, 500 g ai/ha, visual injury, 0 to 100 scale (0 no effect, 100 complete control), approx. ten days, read-out: Morningglory plant response rating
  pest or weed control at 500 g/ha: 80%
[5]; [11]
  pest or weed control at 125 g/ha: 10%
[6]; post-emergence, Postemergence, 0 to 100 scale where 0 is no effect and 100 is complete control, read-out: Plant response rating, Pigweed
  pest or weed control at 125 g/ha: 50%
[6]; post-emergence, Postemergence, visual injury, 0 to 100 scale (0 no effect, 100 complete control), approx. ten days, read-out: Pigweed plant response rating
  pest or weed control at 500 g/ha: 70%
[6]; [14]
  pest or weed control at 125 g/ha: 60%
  pest or weed control at 500 g/ha: 90%
[7]; post-emergence, Postemergence, 0 to 100 scale where 0 is no effect and 100 is complete control, read-out: Plant response rating, Velvetleaf
  pest or weed control at 125 g/ha: 50%
[7]; post-emergence, Postemergence, visual injury, 0 to 100 scale (0 no effect, 100 complete control), approx. ten days, read-out: Velvetleaf plant response rating
  pest or weed control at 500 g/ha: 80%
[7]; [15]
  pest or weed control at 125 g/ha: 0%
  pest or weed control at 500 g/ha: 60%
[8]; post-emergence, Postemergence, 0 to 100 scale where 0 is no effect and 100 is complete control, read-out: Plant response rating, Wheat
  plant injury at 125 g/ha: 0%
[8]; post-emergence, Postemergence, visual injury, 0 to 100 scale (0 no effect, 100 complete control), approx. ten days, read-out: Wheat plant response rating
  plant injury at 500 g/ha: 0%
[8]; [16]
  plant injury at 125 g/ha: 0%
  plant injury at 500 g/ha: 0%
